Assay results published in publication PMC7932521, “2-aminobenzimidazoles for leishmaniasis: From initial hit discovery to in vivo profiling” (PLoS Neglected Tropical Diseases, 2021).
Like-named read-outs stand apart in the source and are kept apart here.

How the values were obtained:
[1] = test system: Leishmania infantum MHOM/MA(BE)/67/ITMAP263 amastigotes; test: L. infantum intracellular amastigote assay in PMM; type: cell-based; conditions: for SI: selectivity index (CC50 / IC50): CC50 / L. infantum IC50; for IC50: Leishmania infantum, read-out: L. infantum IC50
Procedure: (§1) Leishmania infantum MHOM/MA(BE)/67/ITMAP263 amastigotes were collected from the spleen of infected donor Golden hamsters. Primary peritoneal mouse macrophages (PMM) were used as host cells for in vitro assays. PMM were collected from Swiss mice after 2 days of peritoneal stimulation with a 2% suspension of potato starch and maintained in RPMI-1640 medium supplemented with 200 mM L-glutamine, antibiotics and 5% FCS at 37°C and 5% CO2. Promastigotes of L. infantum chagasi (luciferase) (MHOM/BR/2005/NLC) obtained as described in Reimão et al.,[27] were grown in M199 medium supplemented with 10% FCS, 0.25% hemin, 32 μg/ml hygromycin and 2% sterile human urine at 25°C and 5% CO2.
(§2) Stock solutions of the compounds at 20 mM were prepared in 100% DMSO. Next, the compounds were serially pre-diluted in DMSO followed by a further dilution in demineralized water to assure a final in-test DMSO concentration below 1%. The compounds were tested at 4-fold dilutions starting at 64 μM.
For the antileishmania in vitro assays, 3×10^4 PMM/well were seeded in 96-well plates. After 24h, 5×10^5 amastigotes/well were added and incubated for 2h at 37°C. Next, the compounds in 4-fold serial dilutions were added and the plates were further incubated for 5 days (37°C, 5% CO2). Parasite burdens were assessed using an inverted microscope after Giemsa staining. The results were expressed as percent reduction in parasite burdens compared to negative control wells (100% growth) and IC50 values were determined. Values represent the geometric mean of at least two independent experiments. Miltefosine was used as the positive control in all plates.

[2] = test system: PMM (Primary Mouse Macrophages); test: Cytotoxicity on primary peritoneal mouse macrophages; type: cell-based; conditions: Mus musculus, Macrophage, read-out: PMM IC50
Procedure: as §1, §2

[3] = MRC-5 cytotoxicity; type: cell-based; conditions: human, MRC-5 cells; S1 Data
[4] = Mouse liver microsomal stability; type: in vitro ADME; conditions: for microsomal CLint at 0.5 μM: CD1, mouse, liver microsomes, pH 7.4, S1 Data, read-out: MLM CLint; for MLM CLint: S1 Data
Procedure: The metabolic stability of the compounds was evaluated in human (pool of 200 donors, XenoTech) and mouse liver microsomes (CD1 mouse, GIBCO). Test compounds were prepared at a concentration of 0.5 μM and incubated with 0.25 mg/mL liver microsomes at pH 7.4 and 37°C. The reaction was started by addition of NADPH at […]. Samples were taken at 0, 5, 10, 15, 20 and 30 minutes. The reaction was stopped by the addition of acetonitrile:methanol (1:1) containing an internal standard (tolbutamide at 50 nM). Compounds were quantified by liquid chromatography triple quadrupole mass spectrometry (LC-MS/MS). Peak area ratios (analyte/internal standard) were converted to % remaining using the area ratio at time 0 as 100%. Half-life (t1/2 = ln(2)/k) in minutes and intrinsic clearance (Clint = k x 1000/(0.25)) in μL/min/mg were calculated using a non-linear regression from % remaining versus incubation time. From this plot, the slope (k) was determined. The analysis conditions were: analytical column (Gemini C18, […], Phenomenex), electrospray ionization source (ESI) in positive and negative mode, mobile phase A (water + 0.1% formic acid) and B (acetonitrile + 0.1% formic acid), flow rate of 0.7 mL/min.

[5] = Parallel artificial membrane permeability assay (PAMPA); type: in vitro ADME; conditions: PAMPA, S1 Data; read-out: PAMPA Pe
Procedure: To determine the passive permeability of the compounds, a 96-well plate containing membranes pre-coated with lipids (Corning Gentest # 353015) was used. The solutions of the compounds were prepared by diluting the stock solutions (10mM) in phosphate buffered saline (PBS) pH 6.5 at a final concentration of 10μM. The solutions diluted in PBS pH 6.5 were then added to the donor portion of the plate (300 μl/well), while PBS pH 7.4 (200 μl/well) was added to the acceptor portion. The two portions of the plate were then coupled, and the system was incubated for 5 h at 37°C. At the end of the incubation, samples were collected from the donor and acceptor plates, and then added to plates containing quench solution (10% water and 90% methanol: acetonitrile (50:50) + 50 nM tolbutamide). The final concentrations of compounds in the donor, acceptor, and initial solution (T0) wells were analyzed using LC-MS/MS. The results were used to calculate an effective permeability (Pe) value. The PAMPA assay was performed in triplicate (n = 3).

[6] = Experimental distribution coefficient (eLogD); type: physicochemical; conditions: pH 7.4
Procedure: To determine the lipophilicity of the compounds, a methodology based on the retention time of molecules in reverse stationary phase (Ascentis RP-Amide HPLC column) was used. The chromatogram was obtained using LC-MS/MS. Test compounds were prepared at 1.0 μg/mL by adding the stock solution at (1:1) mobile phases A:B + internal standard at 200nM (A: 5% methanol in 10mM ammonium acetate pH 7.4, B: 100% methanol), DMSO concentration must be lower than 2%. […] The retention time (in minutes) of each of the eight standards was plotted against their LogD values. The resulting equation for the calibration curve (y = mx + b) was used to calculate the LogD values for the test compounds.

[7] = 120 h, intracellular amastigotes in PMM, 5 days

| Structure (SMILES) | SI: selectivity index (CC50 / IC50) [1] | IC50 [1, 7] [µM] | IC50 ([1]; S1 Data) [µM] | IC50 [2] [µM] | CC50 [3] [µM] | microsomal CLint at 0.5 μM [4] [µL/min/mg] | Papp at 5 h, 10 μM [5] [×10⁻⁶ cm/s] | eLogD ([6]; experimental) | chromatographic logD ([6]; reverse stationary phase HPLC column (Ascentis RP-Amide), S1 Data) | potency compared to initial hit 1 ([1]; L. infantum IC50) [fold] | MLM CLint [4] [µL/min/mg] |
| --- | --- | --- | --- | --- | --- | --- | --- | --- | --- | --- | --- |
| Cn1nccc1C(=O)Nc1nc2ccc(C#N)cc2n1C1CC1 [Compound 31, O=C(c1ccnn1C)Nc2nc(ccc(C#N)c3)c3n2C4CC4] | 2 | 30 | 30 | > 64 | > 64 | 162 | 14.4 |  |  |  |  |
| Cn1nncc1C(=O)Nc1nc2ccc(C#N)cc2n1CC(F)(F)F [Compound 33, O=C(c1cnnn1C)Nc2nc(ccc(C#N)c3)c3n2CC(F)(F)F] | 2 | 15 | 14.8 | 32 | > 64 |  |  | 4.0 | 4 |  |  |
| Cn1cc(C(=O)Nc2nc3ccc(C#N)cc3n2CC(F)(F)F)cn1 [Compound 36, O=C(c1cn(C)nc1)Nc2nc(ccc(C#N)c3)c3n2CC(F)(F)F] | 2 | 8.7 | 8.74 | 16 | 56.1 |  |  |  |  |  |  |
| N#Cc1ccc2nc(NC(=O)c3ccnn3C3CC3)n(CC(F)(F)F)c2c1 [Compound 37, O=C(c1ccnn1C2CC2)Nc3nc(ccc(C#N)c4)c4n3CC(F)(F)F] | 5 | 10 | 10.1 | 45.2 | 3 |  |  |  |  |  |  |
| Cc1ccc(C(=O)Nc2nc3ccc(C#N)cc3n2CC(F)(F)F)cn1 [Compound 42, O=C(c1ccc(C)nc1)Nc2nc(ccc(C#N)c3)c3n2CC(F)(F)F] | 2 | 4.7 | 4.65 | 8 | > 64 |  | 13.2 |  |  |  |  |
| N#Cc1ccc2nc(NC(=O)c3cnc(C(F)(F)F)nc3)n(CC(F)(F)F)c2c1 [Compound 46, O=C(c1cnc(C(F)(F)F)nc1)Nc2nc(ccc(C#N)c3)c3n2CC(F)(F)F] | 4 | 1 |  | 4 | 1.78 |  | 1.46 |  |  | 10 to 20 |  |
| Cn1nccc1C(=O)Nc1nc2ccc(C#N)cc2n1CC(F)F [Compound 47, FC(F)Cn1c(cc(C#N)cc2)c2nc1NC(c3ccnn3C)=O] | 3 | 8.8 | 8.78 | 22.6 | 12.3 |  | 10.6 |  |  |  | 383 |
| Cn1nccc1C(=O)Nc1nc2ccc(C#N)cc2n1CCF [Compound 48, FCCn1c(cc(C#N)cc2)c2nc1NC(c3ccnn3C)=O] | 1 | 28 | 27.9 | 32 | 13.7 |  | 63.7 |  |  |  | 154 |
| Cn1nccc1C(=O)Nc1nc2ccc(C#N)cc2n1CC(C)(C)O [Compound 49, O=C(c1ccnn1C)Nc2nc(ccc(C#N)c3)c3n2CC(O)(C)C] | 2 | 36 | 36 | > 64 | > 64 | < 23 | 9.39 |  |  |  |  |
| CCN(CC)CCCn1c(NC(=O)c2ccnn2C)nc2ccc(C#N)cc21 [Compound 52, CCN(CC)CCCn1c(cc(C#N)cc2)c2nc1NC(c3ccnn3C)=O] | 1 | 57 | 57 | > 64 | > 64 | 59 |  |  |  |  |  |
